The record followed here is the Kinase Knowledgebase extract (Sharma et al. 2016).

pIC50, pKi: −log10 of the molar value.

In assay [1] the target is MAPK14 (UniProt Q16539). Description: p38 Binding Asssy.
Assay [2] addresses EGFR (human) (UniProt P00533). Particulars: a431, concentration not given here.
The target in assay [3] is MAPK14 (UniProt Q16539). Description: In Vitro p38 Inhibition.
Assay [4] addresses MAPK14 (UniProt Q16539). Description: p38 Inhibition.
The target in assay [5] is EGFR (murine) (UniProt P00533). The settings on record: nih3t3.
For assay [6], the target named is EGFR (murine) (UniProt P00533). Particulars: nih3t3. The source holds these as a separate data set.
For assay [7], the target named is EGFR (murine) (UniProt P00533). The settings on record: f/l-herc.
Assay [8] deals with EGFR (murine) (UniProt P00533). Particulars: f/l-herc. The source holds these as a separate data set.
Assay [9] has as its target EGFR (human) (UniProt P00533).
In assay [10] the target is EGFR (human) (UniProt P00533). Particulars: a431.
For assay [11], the target named is EGFR (human) (UniProt P00533). The settings on record: mkn45, concentration not given here.
The target of assay [12] is CDK2 (UniProt P24941). Description: Enzyme Assay.
Assay [13] has as its target CDK2 (UniProt P24941). Briefly: Enzyme Assay. The source holds these as a separate data set.
The target in assay [14] is CDK2 (UniProt P24941). Description: Enzyme Assay. This is another data set of the same source.
Assay [15] concerns the target ROCK2 (UniProt O75116). Briefly: Inhibition of COS cell Derived Rho kinase (ROCKII).
The target in assay [16] is EGFR (mouse) (UniProt P00533). Particulars: nih3t3/c7.
The target in assay [17] is EGFR (UniProt P00533).
Assay [18] deals with EGFR (human) (UniProt P00533). Particulars: f/l herc cells.
In assay [19] the target is EGFR (UniProt P00533). The source holds these as a separate data set.
Assay [20] addresses EGFR (UniProt P00533). This is another data set of the same source.
Assay [21] deals with EGFR (mouse) (UniProt P00533). The settings on record: swiss 3t3 fibroblast.
The target of assay [22] is EGFR (human) (UniProt P00533). The settings on record: a431. The source holds these as a separate data set.
The target in assay [23] is EGFR (human) (UniProt P00533). Particulars: a431. The source holds these as a separate data set.
Assay [24] has as its target EGFR (UniProt P00533). This is another data set of the same source.
The target of assay [25] is EGFR (human) (UniProt P00533). Particulars: a431. The source holds these as a separate data set.
Assay [26] concerns the target EGFR (UniProt P00533). This is another data set of the same source.
In assay [27] the target is EGFR (UniProt P00533). The source holds these as a separate data set.
The target in assay [28] is EGFR (UniProt P00533). This is another data set of the same source.
In assay [29] the target is EGFR (UniProt P00533). The source holds these as a separate data set.
The target of assay [30] is EGFR (UniProt P00533). This is another data set of the same source.

MAPK14, sequence (Q16539 whole entry, looked up): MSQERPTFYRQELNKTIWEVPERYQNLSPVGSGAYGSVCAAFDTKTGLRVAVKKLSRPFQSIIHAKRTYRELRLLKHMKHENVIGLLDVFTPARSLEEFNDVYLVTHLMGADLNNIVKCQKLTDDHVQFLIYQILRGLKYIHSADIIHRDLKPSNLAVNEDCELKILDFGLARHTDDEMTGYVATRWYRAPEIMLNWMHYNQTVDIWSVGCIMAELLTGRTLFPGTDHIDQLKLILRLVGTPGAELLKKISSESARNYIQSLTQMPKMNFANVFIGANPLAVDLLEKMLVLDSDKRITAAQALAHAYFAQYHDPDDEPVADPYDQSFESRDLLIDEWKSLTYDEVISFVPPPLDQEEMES
EGFR (murine), sequence (P00533 whole entry, looked up): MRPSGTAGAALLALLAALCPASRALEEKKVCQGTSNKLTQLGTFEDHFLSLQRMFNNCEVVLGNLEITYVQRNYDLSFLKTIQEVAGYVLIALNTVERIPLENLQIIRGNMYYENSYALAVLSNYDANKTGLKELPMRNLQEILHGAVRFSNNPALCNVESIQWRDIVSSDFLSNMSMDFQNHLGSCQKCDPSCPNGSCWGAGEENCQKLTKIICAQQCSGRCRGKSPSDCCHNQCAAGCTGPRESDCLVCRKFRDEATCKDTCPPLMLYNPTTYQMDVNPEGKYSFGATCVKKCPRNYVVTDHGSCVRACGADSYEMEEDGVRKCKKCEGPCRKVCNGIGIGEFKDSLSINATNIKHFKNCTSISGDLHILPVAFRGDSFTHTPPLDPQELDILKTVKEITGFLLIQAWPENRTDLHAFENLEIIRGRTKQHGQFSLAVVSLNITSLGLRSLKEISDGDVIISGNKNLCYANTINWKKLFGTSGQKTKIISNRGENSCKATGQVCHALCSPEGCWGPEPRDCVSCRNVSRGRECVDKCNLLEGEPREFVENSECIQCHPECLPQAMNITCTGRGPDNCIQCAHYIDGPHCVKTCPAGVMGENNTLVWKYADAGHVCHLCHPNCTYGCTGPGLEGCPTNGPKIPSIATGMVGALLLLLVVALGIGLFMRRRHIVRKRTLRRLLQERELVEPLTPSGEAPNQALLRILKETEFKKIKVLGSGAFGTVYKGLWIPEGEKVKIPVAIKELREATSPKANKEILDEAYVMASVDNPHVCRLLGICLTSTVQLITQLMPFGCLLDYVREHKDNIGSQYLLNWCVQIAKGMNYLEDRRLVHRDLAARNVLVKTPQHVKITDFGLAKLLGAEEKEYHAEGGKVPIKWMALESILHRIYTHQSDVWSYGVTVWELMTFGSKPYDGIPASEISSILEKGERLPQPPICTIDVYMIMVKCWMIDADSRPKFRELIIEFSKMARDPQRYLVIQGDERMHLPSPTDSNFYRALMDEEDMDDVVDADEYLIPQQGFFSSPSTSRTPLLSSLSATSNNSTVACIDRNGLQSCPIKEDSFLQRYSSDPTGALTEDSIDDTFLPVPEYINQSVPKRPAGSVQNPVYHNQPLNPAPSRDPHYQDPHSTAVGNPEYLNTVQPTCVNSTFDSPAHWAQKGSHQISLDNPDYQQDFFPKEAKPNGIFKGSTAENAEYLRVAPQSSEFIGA
EGFR, sequence (P00533 whole entry, looked up): as above
EGFR (human), sequence (P00533 whole entry, looked up): as above

With `[N-]=[N+]=Nc1cccc(-c2ncn(CCCNC(=O)c3ccc(I)cc3)c2-c2ccncc2)c1`, the pIC50 in [1] was 7.34. Turning to `C=CC(=O)Nc1ccc2ncnc(Nc3ccc(OCc4ccccc4)cc3)c2c1`, the activity in assay [2] is 0%.

On to `O=C(CNS(=O)(=O)c1ccc(CNC(=O)c2ccc(Cl)cc2)s1)NCCNc1ncc(C(F)(F)F)cc1Cl`, for which the pIC50 in assay [3] and in [4] was less than 4.52 in each case. As to `CN(C)S(=O)(=O)c1ccc2c(c1)/C(=C/C1=CC3=C(CCCC3)C1)C(=O)N2`, in [5], the pIC50 is less than 4.00. In turn, `CC(C)S(=O)(=O)c1csc(NC(=O)Nc2ccc(C(C)(C)C)cc2)c1Cl` gave a negative logarithm of the IC50 (pIC50) in [6] of less than 4.00. Take `CN1C2CC[C@]1(Nc1ncc3ncnc(Nc4ccc(F)c(Cl)c4)c3n1)CC(O)C2` (stereo partly drawn): the figures for the negative-log IC50 (pIC50) in [7] and in [8] were less than 5.00 and 6.86, respectively.

As to `Cn1c(=O)c(-c2c(Cl)cccc2Cl)cc2cnc(Nc3cccc(Br)c3)nc21`, the pIC50 in assay [9] was 6.51.

In assay [10], `Oc1ccc2ncnc(Nc3cccc(Br)c3)c2c1` had a negative logarithm of the Ki (pKi) of 10.60. As to `Nc1c2ccccc2nc2c1ccc1ncccc12`, in assay [11], the cell viability is more than 90%.

Take `O=C1c2ccccc2-[n+]2ccc3c([nH]c4ccccc43)c21`: the figures for the negative logarithm of the IC50 (pIC50) in assay [12], in assay [13] and in [14] were less than 3.60, less than 4.30 and less than 4.30, respectively. On to `CC(N)[C@H]1CC[C@H](C(=O)Nc2ccnc3[nH]ccc23)CC1` (stereo partly drawn), for which the pIC50 in assay [15] was 7.32. Regarding `Cc1nc2cc3nc(-c4ccccc4)[nH]c3cc2nc1C`, in [16], the negative-log IC50 (pIC50) is less than 5.00. Regarding `Cn1c2ccccc2c2cc[n+]3c(c21)C(=O)c1ccccc1-3`, the pIC50 in [13] and in [14] was less than 4.00 in each case. Compound `C=CC(=O)c1ccc2ccccc2c1` had a pIC50 in assay [17] of 4.90. `O=C(CNS(=O)(=O)c1ccc(CNC(=O)c2ccc(Cl)cc2)s1)NCCNc1ccc(C(F)(F)F)cn1`: the negative-log IC50 (pIC50) in assay [3] is less than 4.52. `CCC(=O)CN(C)C/C=C/C(=O)Nc1cc2c(N[C@H](C)c3ccccc3)ncnc2cc1OC` had a negative-log IC50 (pIC50) in assay [18] of 8.05. `COc1cccc(-c2cn(-c3ccc(CC(=O)NCCO)cc3)c3ncncc23)c1` gave a pIC50 in [19] of 6.10. Compound `Cc1cc(C)c(N(C)C)c(C)c1Cc1nc(-c2ccncc2)c(-c2ccc(Cl)cc2)[nH]1` gave a pIC50 in assay [20] of 7.30. Consider `CC(C)N(CCC(=O)c1ccc2ccccc2c1)Cc1ccccc1`, for which, in assay [17], the negative logarithm of the IC50 (pIC50) is 5.50. Consider `O=C(O)Cc1c(SSc2[nH]c3ccccc3c2CC(=O)O)[nH]c2ccccc12`, for which the pIC50 in [21] is less than 4.30.

In assay [16], `Cc1cnc2cc3nc(-c4ccccc4)[nH]c3c(C)c2n1` gave a pIC50 of less than 4.00. `Oc1ccc2c(Nc3cccc(Br)c3)ncnc2c1` showed a pKi in assay [10] of 9.77.

Take `COc1cc2ncnc(N[C@H](COC(C)=O)c3ccccc3)c2cc1OC`: the negative logarithm of the IC50 (pIC50) in assay [22] is 5.88; in [23] it was 5.28.

`N#C/C(=C\c1ccc(O)c(O)c1)C(=O)NCCCCc1ccccc1`: the negative-log IC50 (pIC50) in assay [24] is 5.30. As for `CO[C@@H](C#CC(=O)Nc1ccc2ncc(C#N)c(Nc3cccc(Br)c3)c2c1)CN1CCCC1`, the figures for the pIC50 in assay [25] and in assay [26] were 5.92 and 6.82, respectively.

With `Cc1ccc2[nH]c(SSc3[nH]c4ccc(C)cc4c3CCC(=O)O)c(CCC(=O)O)c2c1`, the negative logarithm of the IC50 (pIC50) in assay [21] was less than 4.30. In turn, `Cn1ccc2cc3c(Nc4cccc(Br)c4)ncnc3cc21` had a pIC50 in assay [27] of 9.30. The compound `CN1CCN(CCCNc2ncc3cc(-c4c(Cl)cccc4Cl)c(=O)n(C)c3n2)CC1` had a pIC50 in assay [28] of 5.06.

Compound `Nc1c2c(nc3ccccc13)-c1cccnc1CC2` displayed a cell viability in assay [11] of more than 90%. `Cc1cc(C(=O)N2CCOCC2)[nH]c1/C=C1/C(=O)Nc2ncnc(N3CCCCC3)c21` gave a pIC50 in assay [29] of less than 4.70. Turning to `Brc1cccc(Nc2ncnc3cc4c(cc23)OCCO4)c1`, the pIC50 in assay [30] was 11.22.

The term pIC50 denotes the IC50 on a negative log10 scale, so that one unit is a factor of ten. A lower pIC50 goes with a high IC50. Usually pKi stands for the negative decadic logarithm of the Ki, by convention in mol/L. Low values mean a high Ki, high ones a low Ki. Broadly, the cell viability is a per cent measure of how many cells are alive, often set against a control. Low values mean more harm to the cells, high ones less harm to the cells.
